{"source": "patent US6555533B2", "about": "“Use of certain substituted caprolactams in treating tumors” (Novartis AG, priority 1998, dated 2003)", "key": {"HCT-116 colon carcinoma": {"test_system": "HCT-116 colon carcinoma", "assay": "Anchorage Dependent Growth Monolayer Assay (ADGMA), HCT-116", "type": "cell-based, human", "conditions": "3-day exposure, MTS readout; read-out: IC50 (average±S.D.) HCT-116", "method": "(§1) As indicated above, all of the compounds of formula I, and their corresponding pharmaceutically acceptable acid addition salts, are anti-tumor agents and are, therefore, useful in inhibiting the growth of various lymphomas, sarcomas, carcinomas, myelomas, and leukemia cell lines.\n(§2) The ADGMA compares the number of viable cells following a 3-day exposure to a test compound relative to a number of cells present at the time the test compound was added. […] The absorbance at 490 nm (A490) of the formazan derivative is proportional to the number of viable cells. The IC50 for a test compound is the concentration of compound required to reduce the final cell number to 50% of the final control cell number. If cell proliferation is inhibited, the assay further defines compounds as cytostatic (cell number after 3-day compound incubation >cell number at time of compound addition) or cytotoxic (cell number after 3-day compound incubation <cell number at time of compound addition).\n(§3) A549, HCT-116 and PC-3 cells were maintained in RPMI 1640 containing 5% FBS, […], 1 nM β-estradiol, 1 nM testosterone, 100 units/mL penicillin and 100 ug/mL streptomycin.\n(§4) Cell lines are trypsinized and counted using a Coulter counter to determine plating densities. Cells are then plated in their respective maintenance media (100 μL/well) in 96 well plates at the following densities: MDA-MB-435, 3,000 cells/well; A549 and HCT-116, 700 cells/well; are PC-3, 2500 cells/well. The number of cells plates as determined in preliminary experiments, results in cell densities of 75-90% of confluency by 4 days after plating. Initial cell densities, assayed one day after plating, are roughly 0.15-0.20 absorbance units greater than the media blank. Ninety-six well plates are seeded on day 0 and the test compounds are added on day 1. A control plate is created for each cell line that receives media only in row A and cells in row B. One day following plating, test compounds are added (in a final volume of 100 μL) to the test plates. Control plates receive 10 μL MTS mixture (prepared fresh on day of addition to cell plates at a ratio of 10 μL of a 0.92 mg/mL solution of PMS to a 190 μL of a 2 mg/mL solution of MTS) and 100 μL media. A490 of control plates is read 4 h after MTS addition to determine initial cell density values for each cell line. Three days after addition of test compound, 10 μL/well of MTS mixture is added to the test plates and A490 is read 4 h later. A490 values for wells containing cells are corrected for media absorbance, then normalized to initial density readings to determine percent net growth. IC50 values are determined from graphs of percent net growth as a function of compound concentration. Percent net growth is calculated as (Cell+Drug A490−Initial A490/Cell+Drug Vehicle A490−Initial A490)."}, "[1]": {"test_system": "MDA-MB-435 tumor xenografts", "assay": "MDA-MB-435 breast carcinoma xenograft model", "type": "in vivo, athymic (nu/nu) mice", "method": "Positive controls are carried out with doxorubicin administered 3 times per week i.v.\nThe following results were obtained for compounds of Ex.1-Ex.12 tested against MDA-MB-435 tumor xenografts 3×/week for 3 weeks: […]"}, "A549 tumor xenografts": {"test_system": "A549 tumor xenografts", "source_text": "Utilizing this model, one can measure the ability of test compounds to inhibit the growth of human tumor xenografts growing subcutaneously (s.c.) in athymic nude mice. The histologic tumor types employed were MDA-MB-435 breast, A549 non-small cell lung, HCT-116 colon and PC-3 prostate carcinomas.\nA549 non-small cell lung carcinoma xenograft model: Briefly, 10 million cells were implanted s.c. into the right flank of athymic (nu/nu) mice, and were allowed to grow until a mass of approximately 120 mm^3 was established. The test compounds are administered three times per week intravenously (i.v.) for three weeks in 5% dextrose, 10%DMSO in water. The test compounds are administered in dose-response fashion in order to evaluate and document the full potential range of activity (efficacy and toxicity) for a given compound. Positive controls are carried out with mitomycin C administered 3 times per week intraperitioneally (i.p.).\nToxicity was monitored by recording average group body weights twice weekly, and by daily observation of general health. Efficacy was monitored by taking measurements of tumor length, width, and depth weekly using digital calipers coupled to automated data collectors. Mean tumor volume (MTV) at initiation of therapy was subtracted from final MTV in order to express the actual tumor growth during treatment (ΔMTV). Anti-tumor activity was expressed as %T/C (ΔMTV of treated group÷ΔMTV of control group×100). Regressions were calculated using the formula: (T/T0−1)×100%, where T is the tumor volume for the treatment group at the end of the experiment, and T0 is the tumor volume at the beginning of the experiment. Statistical significance was evaluated using a one-tailed Student's t-test (p<0.05)."}, "[2]": {"test_system": "MDA-MB-435 breast carcinoma", "assay": "Anchorage Dependent Growth Monolayer Assay (ADGMA), MDA-MB-435", "type": "cell-based, human", "conditions": "3-day exposure, MTS readout; read-out: IC50 (average±S.D.) MDA-MB-435", "method": "as §1, §2\nThe MDA-MB-435 breast carcinoma line was obtained from the American Type Culture Collection (ATCC) and used between passages 4-20 following thawing. MDA-MB-435 breast carcinoma was maintained and plated in DME/F12 medium containing 10% fetal bovine serum, 15 mM HEPES (pH=7.4), 100 units/mL penicillin, and 100 μg/mL streptomycin.\nas §4"}, "[3]": {"test_system": "A549 non-small cell lung carcinoma", "assay": "Anchorage Dependent Growth Monolayer Assay (ADGMA), A549", "type": "cell-based, human", "conditions": "3-day exposure, MTS readout; read-out: IC50 (average±S.D.) A549", "method": "as §1, §2, §3, §4"}, "H2O solubility": {"assay": "H2O solubility", "type": "physicochemical", "conditions": "water; for Example 1 stated for the solid before preparative hplc"}, "PC-3 prostate carcinoma": {"test_system": "PC-3 prostate carcinoma", "assay": "Anchorage Dependent Growth Monolayer Assay (ADGMA), PC-3", "type": "cell-based, human", "conditions": "3-day exposure, MTS readout; read-out: IC50 (average±S.D.) PC-3", "method": "as §1, §2, §3, §4"}, "HCT-116 tumor xenografts": {"test_system": "HCT-116 tumor xenografts", "assay": "HCT-116 colon carcinoma xenograft model", "type": "in vivo, athymic (nu/nu) mice", "method": "Positive controls are carried out with 5-fluorouracil administered 1 time per week i.v."}, "[4]": {"conditions": "10 μmol/kg i.v. 3×/week for 3 weeks"}, "[5]": {"conditions": "33 μmol/kg i.v. 3×/week for 3 weeks"}, "[6]": {"conditions": "100 μmol/kg i.v. 3×/week for 3 weeks"}}, "note": "Like-named read-outs stand apart in the source and are kept apart here. Marks after values point to notes of the source that are not given here.", "data": [{"smiles": "CO[C@@H](C(=O)N[C@H]1CC[C@@H](OC(=O)C2CCCC2)CNC1=O)[C@H](O)[C@@H](O)[C@H](O)/C=C/C(C)(C)C", "note": "[Ex. 2]", "values": [{"measurement": "IC50", "setting": "HCT-116 colon carcinoma", "result": "120 ± 29", "unit": "nM"}, {"measurement": "% T/C", "setting": "[1]; [4]", "result": 67, "unit": "%"}, {"measurement": "Dead/Total", "setting": "[1]; [4]", "result": "0/8"}, {"measurement": "% T/C", "setting": "[1]; [5]", "result": "13* %"}, {"measurement": "Dead/Total", "setting": "[1]; [5]", "result": "0/8"}, {"measurement": "% T/C", "setting": "A549 tumor xenografts; [4]", "result": 58, "unit": "%"}, {"measurement": "Dead/Total", "setting": "A549 tumor xenografts; [4]", "result": "0/8"}, {"measurement": "Δ MTV", "setting": "A549 tumor xenografts; [4]", "result": 44, "unit": "mm^3"}, {"measurement": "% T/C", "setting": "A549 tumor xenografts; [5]", "result": "37* %"}, {"measurement": "Dead/Total", "setting": "A549 tumor xenografts; [5]", "result": "0/8"}, {"measurement": "Δ MTV", "setting": "A549 tumor xenografts; [5]", "result": 28, "unit": "mm^3"}, {"measurement": "% T/C", "setting": "A549 tumor xenografts; [6]", "result": "9* %"}, {"measurement": "Dead/Total", "setting": "A549 tumor xenografts; [6]", "result": "0/7"}, {"measurement": "Δ MTV", "setting": "A549 tumor xenografts; [6]", "result": 7, "unit": "mm^3"}, {"measurement": "IC50", "setting": "[2]", "result": "128 ± 47", "unit": "nM"}, {"measurement": "IC50", "setting": "[3]", "result": "201 ± 100", "unit": "nM"}, {"measurement": "H2O solubility", "setting": "H2O solubility", "result": 18, "unit": "mg/mL"}, {"measurement": "IC50", "setting": "PC-3 prostate carcinoma", "result": "145 ± 53", "unit": "nM"}, {"measurement": "% T/C", "setting": "HCT-116 tumor xenografts; [4]", "result": 75, "unit": "%"}, {"measurement": "Dead/Total", "setting": "HCT-116 tumor xenografts; [4]", "result": "0/8"}, {"measurement": "Δ MTV", "setting": "HCT-116 tumor xenografts; [4]", "result": 303, "unit": "mm^3"}, {"measurement": "% T/C", "setting": "HCT-116 tumor xenografts; [5]", "result": "56* %"}, {"measurement": "Dead/Total", "setting": "HCT-116 tumor xenografts; [5]", "result": "0/8"}, {"measurement": "Δ MTV", "setting": "HCT-116 tumor xenografts; [5]", "result": 225, "unit": "mm^3"}, {"measurement": "% T/C", "setting": "HCT-116 tumor xenografts; [6]", "result": "25* %"}, {"measurement": "Dead/Total", "setting": "HCT-116 tumor xenografts; [6]", "result": "0/8"}, {"measurement": "Δ MTV", "setting": "HCT-116 tumor xenografts; [6]", "result": 102, "unit": "mm^3"}]}]}
